Source: patent publication US8410141B2, “Insecticidal arylpyrrolines” (Bayer Cropscience AG, priority 2009, dated 2013)

Key:
Assay type in all cases: in vivo
[1] = tested on: Two-Spotted Spider Mite (Tetranychus urticae); assay: Test against two-spotted spider mite (Tetranychus urticae), spray; conditions: 100 ppm; sprayed on kidney bean; adult mites; after 7 days
Description: (§1) Unless not mentioned otherwise, the test solutions were prepared as follows:
(§2) Containing as solvent: Dimethylformamide, 3 parts by weight; and as emulsifier: Polyoxyethylene alkyl phenyl ether, 1 part by weight. To prepare the test solution, 1 part by weight of an active compound is mixed with the above-mentioned amount of solvent containing the above-mentioned amount of emulsifier, and the mixture is diluted with water to the desired concentration.
50 to 100 adult two-spotted spider mites were inoculated onto the leaves of kidney beans at the two-true leaf stage, which plant had been cultivated in a pot having a diameter of 6 cm. After one day, test solution at the appropriate concentration was sprayed thereon in a sufficient amount using a spray gun. After the spraying, the plant pot was placed inside a greenhouse, and after 7 days, the acaricidal activity was calculated. An acaricidal activity of 100% means that all mites were killed, whereas an acaricidal activity of 0% means that no mite was killed.

[2] = tested on: Rice Leafroller (Cnaphalocrocis medinalis) Larvae; assay: Test against rice leafroller larvae, seed treatment; conditions: 8 g/1 kg dry seeds, leaves cut 28 days after seeding, third-instar larvae, after 7 days
Description: To prepare the test solution, 1 part by weight of an active compound is mixed with the 8 parts of acetone, and mix with 20 mg of micronized mineral. After that 1 g of dry rice seeds and 50 ul of water are added and mixed well and dried in the air. Sow treated seeds in the pot having a diameter of 12 cm. 28 days after seeding the leaves were cut and placed in a petri dish having a diameter of 9 cm. And then five third-instar larvae of rice leafroller were released therein. The petri dish was placed in a temperature-controlled room at 25° C. After 7 days, the number of dead larvae was counted to calculate the insecticidal activity. An insecticidal activity of 100% means that all larvae were killed, whereas an insecticidal activity of 0% means that no larva was killed. […] The comparative compound B is No. 1-79 in WO2009/097992.

[3] = tested on: Lucilia cuprina 1st instar larvae; assay: Lucilia cuprina (48 h)
Description: Species: Lucilia cuprina 1st instar larvae (age 24 hrs)
(§3) Solvent: dimethyl sulfoxide
10 mg active compound are dissolved in 0.5 ml dimethyl sulfoxide. Serial dilutions are made to obtain the desired rates. Approximately 20 Lucilia cuprina 1st instar larvae are transferred into a test tube containing 1 cm^3 of minced horse meat and 0.5 ml aqueous dilution of test compound. After 48 hrs percentage of larval mortality are recorded. 100% efficacy=all larvae are killed, […].

[4] = tested on: Tobacco Cutworm (Spodoptera litura) Larvae; assay: Test against tobacco cutworm larvae, root systemicity; conditions: 100 ppm; broccoli seedling roots dipped 3 days; second-instar larvae; after 4 days
Description: as §1, §2
The roots of seedling of broccoli at 1.2 leaf stage were dipped into the test solution at the appropriate concentration. After 3 days, the leaves were cut and placed in a petri dish having a diameter of 9 cm. And then five second-instar larvae of tobacco cutworm were released therein. The petri dish was placed in a temperature-controlled room at 25° C. After 4 days, the number of dead larvae was counted, to calculate the insecticidal activity. An insecticidal activity of 100% means that all larvae were killed, whereas an insecticidal activity of 0% means that no larva was killed.

[5] = tested on: Tobacco Cutworm (Spodoptera litura) Larvae; assay: Test against tobacco cutworm larvae, systemic test by soil drench; conditions: 250 ppm, 20 ml soil drench on potted broccoli, leaves cut after 7 days, third-instar larvae
Description: as §1, §2
20 ml of the test solution at the appropriate concentration was treated on the soil surface of potted broccoli seedling at 2 to 3 leaf stage. After 7 days, the leaves were cut and placed in a petri dish having a diameter of 9 cm. And then ten third-instar larvae of tobacco cutworm were released therein. The petri dish was placed in a temperature-controlled room at 25° C. After 7 days, the number of dead larvae was counted to calculate the insecticidal activity. An insecticidal activity of 100% means that all larvae were killed, whereas an insecticidal activity of 0% means that no larva was killed. […] The comparative compound A is No. 1-72 in WO2009/097992.

[6] = tested on: Cucurbit Leaf Beetle (Aulacophora femoralis); assay: Test against cucurbit leaf beetle (Aulacophora femoralis), leaf immersion; conditions: 100 ppm; cucumber leaves immersed; second-instar larvae; after 7 days
Description: as §1, §2
Cucumber leaves were immersed in the test solution at the appropriate concentration, and the leaves were dried in air. The leaves were then placed in a plastic cup containing sterilized black soil, and five second-instar larvae of cucurbit leaf beetle were released therein. The plastic cup was placed in a temperature-controlled chamber at 25° C. After 7 days, the number of dead larvae was counted, and thus the insecticidal activity was calculated. An insecticidal activity of 100% means that all beetles were killed, whereas an insecticidal activity of 0% means that no beetle was killed.

Musca domestica = Musca domestica test; conditions: for mortality: 100 ppm, sponge with sugar and compound solution, adults, after 2 days
Description: as §3
To produce a suitable preparation of active compound, 10 mg of active compound are dissolved in 0.5 ml solvent, and the concentrate is diluted with water to the desired concentration. Prior to the assay, a piece of kitchen sponge is soaked with a mixture of sugar and compound solution and placed into a container. 10 adults (Musca domestica) are placed into the container and closed with a perforated lid. After 2 days mortality in % is determined. 100% means that all the flies have been killed; 0% means that none of the flies have been killed.

[7] = tested on: Tobacco Cutworm (Spodoptera litura) Larvae; assay: Test against tobacco cutworm (Spodoptera litura) larvae, leaf immersion; conditions: 100 ppm; sweet potato leaves immersed; third-instar larvae; after 7 days
Description: as §1, §2
The leaves of sweet potato were immersed in the test solution at the appropriate concentration, and the leaves were dried in air. The leaves were then placed in a petri dish having a diameter of 9 cm, and ten third-instar larvae of tobacco cutworm were released therein. The petri dish was placed in a temperature-controlled chamber at 25° C. After 2 days and 4 days sweet potato leaves were additionally added. After 7 days, the number of dead larvae was counted to calculate the insecticidal activity. An insecticidal activity of 100% means that all larvae were killed, whereas an insecticidal activity of 0% means that no larva was killed. In the current test, the results of two petri dishes for each partition were averaged.

Ctenocephalides felis = Ctenocephalides felis test (CTECFE); conditions: for mortality: 100 ppm in cattle blood, adult unfed fleas, after 2 days
Description: as §3
To produce a suitable preparation of active compound, 10 mg of active compound are dissolved in 0.5 ml solvent, and the concentrate is diluted with cattle blood to the desired concentration. Approximately 20 adult unfed (Ctenocepahlides felis) are placed in flea chambers. The blood chamber, sealed with parafilm on the bottom, are filled with cattle blood supplied with compound solution and placed on top of the flea chamber, so that the fleas are able to suck the blood. The blood chamber is heated to 37° C. whereas the flea chamber is kept at room temperature. After 2 days mortality in % is determined. 100% means that all the fleas have been killed; 0% means that none of the fleas have been killed.

[8] = tested on: adult engorged female Boophilus microplus ticks; assay: Boophilus microplus (dip); conditions: for mortality: 100 ppm, ticks immersed one minute, after 7 days
Description: Solvent: Dimethylsulfoxid
To produce a suitable preparation of active compound, 10 mg of active compound are dissolved in 0.5 ml solvent, and the concentrate is diluted with water to the desired concentration. Eight to ten adult engorged female Boophilus microplus ticks are placed in perforated plastic beakers and immersed in aqueous compound solution for one minute. Ticks are transferred to a filter paper in a plastic tray. Egg deposition of fertile eggs is monitored after. After 7 days mortality in % is determined. 100% means that all the ticks have been killed; 0% means that none of the ticks have been killed.

[9] = tested on: Nymphs of the tick Amblyomma hebraeum; assay: Amblyomma hebraeum test (AMBYHE); conditions: 100 ppm; nymphs immersed one minute; after 42 days
Description: as §3
To produce a suitable preparation of active compound, 10 mg of active compound are dissolved in 0.5 ml solvent, and the concentrate is diluted with water to the desired concentration. Nymphs of the tick Amblyomma hebraeum are placed in perforated plastic beakers and immersed in aqueous compound solution for one minute. Ticks are transferred to a filter paper in a petri dish and incubated in a climate chamber for 42 days.
After 42 days mortality in % is determined. 100% means that all the ticks have been killed; 0% means that none of the ticks have been killed.

## N#Cc1cc(C2=NCC(c3cc(Cl)nc(Cl)c3)(C(F)(F)F)C2)ccc1-n1cncn1 (stereo not drawn) [1-1, 5-[3-(2,6-dichloropyridin-4-yl)-3-(trifluoromethyl)-3,4-dihydro-2H-pyrrol-5-yl]-2-(1H-1,2,4-triazol-1-yl)benzonitrile]
[1]
  acaricidal activity rate: 100%
[2]
  insecticidal activity: 100%
[3]; Lucilia cuprina, 48 h, read-out: larval mortality
  mortality at 100 ppm: 100%
[4]
  insecticidal activity: 100%
[5]
  insecticidal activity: 100%
[6]
  insecticidal activity: 100%
Musca domestica; Musca domestica, 48 h
  mortality at 100 ppm: 100%
[7]
  insecticidal activity: 100%
Ctenocephalides felis; Ctenocephalides felis, 48 h
  mortality at 100 ppm: 100%
[8]; Rhipicephalus microplus, 168 h
  mortality at 100 ppm: 100%

## FC(F)(F)C1(c2cc(Cl)nc(Cl)c2)CN=C(c2ccc(-n3cncn3)cc2)C1 (stereo not drawn) [1-2]
[1]
  acaricidal activity rate: 100%
[4]
  insecticidal activity: 100%
[6]
  insecticidal activity: 100%
Musca domestica
  mortality: 90%
[7]
  insecticidal activity: 100%

## N#Cc1cc(C2=NCC(c3cc(Cl)cc(C(F)(F)F)c3)(C(F)(F)F)C2)ccc1-n1cncn1 (stereo not drawn) [1-10]
[1]
  acaricidal activity rate: 100%
[4]
  insecticidal activity: 100%
[9]
  mortality: 100%
[6]
  insecticidal activity: 100%
[7]
  insecticidal activity: 100%

## N#Cc1cc(C2=NCC(c3cc(Cl)c(F)c(Cl)c3)(C(F)(F)F)C2)ccc1-n1cncn1 (stereo not drawn) [1-13]
[1]
  acaricidal activity rate: 100%
[4]
  insecticidal activity: 100%
[9]
  mortality: 100%
[6]
  insecticidal activity: 100%
[7]
  insecticidal activity: 100%

## N#Cc1cc(C2=NCC(c3cc(Cl)c(F)c(Cl)c3F)(C(F)(F)F)C2)ccc1-n1cncn1 (stereo not drawn) [1-20]
[1]
  acaricidal activity rate: 100%
[4]
  insecticidal activity: 100%
[9]
  mortality: 100%
[6]
  insecticidal activity: 100%
[7]
  insecticidal activity: 100%

## N#Cc1cc(C2=NCC(c3ccnc(C(F)(F)F)c3)(C(F)(F)F)C2)ccc1-n1cncn1 (stereo not drawn) [1-21]
[1]
  acaricidal activity rate: 100%
[4]
  insecticidal activity: 100%
[5]
  insecticidal activity: 100%
[6]
  insecticidal activity: 100%
Musca domestica
  mortality: 80%
[7]
  insecticidal activity: 100%

## N#Cc1cc(C2=NCC(c3cc(C(F)(F)F)nc(C(F)(F)F)c3)(C(F)(F)F)C2)ccc1-n1cncn1 (stereo not drawn) [1-22]
[1]
  acaricidal activity rate: 100%
[2]
  insecticidal activity: 100%
[4]
  insecticidal activity: 100%
[5]
  insecticidal activity: 100%
[6]
  insecticidal activity: 100%
[7]
  insecticidal activity: 100%

## N#Cc1cc(C2=NCC(c3cc(Cl)c4c(c3)OC(F)(F)O4)(C(F)(F)F)C2)ccc1-n1cncn1 (stereo not drawn) [1-25]
[3]; 100 ppm, minced horse meat, after 48 hrs
  larval mortality: 90%
[4]
  insecticidal activity: 100%
[6]
  insecticidal activity: 100%
Musca domestica
  mortality: 90%
[7]
  insecticidal activity: 100%

## Fc1cc(C2=NCC(c3cc(Cl)c(Cl)c(Cl)c3)(C(F)(F)F)C2)ccc1-n1cncn1 (stereo not drawn) [1-29]
[6]
  insecticidal activity: 100%
[7]
  insecticidal activity: 100%
[8]
  mortality: 95%

## FC(F)(F)C1(c2cc(Cl)c(Cl)c(Cl)c2)CN=C(c2ccc(-n3cncn3)c(Cl)c2)C1 (stereo not drawn) [1-30]
[1]
  acaricidal activity rate: 100%
[6]
  insecticidal activity: 100%
[7]
  insecticidal activity: 100%
Ctenocephalides felis
  mortality: 90%

## N#Cc1cc(C2=NCC(c3cc(Cl)c(Cl)c(Cl)c3)(C(F)(F)F)C2)cnc1-n1cncn1 (stereo not drawn) [1-52]
[1]
  acaricidal activity rate: 100%
[6]
  insecticidal activity: 100%
[7]
  insecticidal activity: 100%
[8]
  mortality: 90%

## N#Cc1cc(C2=NCC(c3cc(Cl)nc(Cl)c3)(C(F)(F)F)C2)cnc1-n1cncn1 (stereo not drawn) [1-66]
[4]
  insecticidal activity: 100%
[6]
  insecticidal activity: 100%
Musca domestica
  mortality: 80%
[7]
  insecticidal activity: 100%

## N#Cc1cc(C2=NCC(c3cccc(C(F)(F)F)n3)(C(F)(F)F)C2)ccc1-n1cncn1 (stereo not drawn) [1-126]
[4]
  insecticidal activity: 100%
[6]
  insecticidal activity: 100%
Musca domestica
  mortality: 90%
[7]
  insecticidal activity: 100%
Ctenocephalides felis
  mortality: 90%

## N#Cc1cc(C2=NCC(c3cncc(Cl)c3)(C(F)(F)F)C2)ccc1-n1cncn1 (stereo not drawn) [1-480]
[1]
  acaricidal activity rate: 100%
[6]
  insecticidal activity: 100%
Ctenocephalides felis
  mortality: 90%

## N#Cc1cc(C2=NCC(c3cccc(OC(F)F)c3)(C(F)(F)F)C2)ccc1-n1cncn1 (stereo not drawn) [1-483]
[1]
  acaricidal activity rate: 100%
[6]
  insecticidal activity: 100%
Ctenocephalides felis
  mortality: 90%

## N#Cc1cc(C2=NCC(c3cc(OC(F)F)cc(OC(F)F)c3)(C(F)(F)F)C2)ccc1-n1cncn1 (stereo not drawn) [1-485]
[1]
  acaricidal activity rate: 100%
[4]
  insecticidal activity: 100%
[6]
  insecticidal activity: 100%
[7]
  insecticidal activity: 100%
[8]
  mortality: 90%

## N#Cc1cc(C2=NCC(c3cc(Cl)c([N+](=O)[O-])c(Cl)c3)(C(F)(F)F)C2)ccc1-n1cncn1 (stereo not drawn) [1-489]
Musca domestica
  mortality: 80%
[7]
  insecticidal activity: 100%
[8]
  mortality: 80%
